Results: patent US12084451B2, “Compositions and methods for reducing tactile dysfunction, anxiety, and social impairment” (President and Fellows of Harvard College, priority 2018, dated 2024)

Key:
hGABAA α1β3γ2 = hGABAA α1β3γ2 (Homo sapiens, UniProt P14867+P18507+P28472); assay: hGABAA IonFlux HT PAM Assay, α1β3γ2; format: cell-based; settings: for Mean Maximal Effect (% of Control): normalized to baseline peak current induced by EC20 GABA (1 μM) for 2 seconds
From the text: (§1) Ligand-gated ion channels targeted were hGABAA α1β3γ2 and hGABAA α2β3γ2.
(§2) Electrophysiological assays conducted to profile nine (9) compounds for activities on the on channel targets listed above for Positive Allosteric Modulator (PAM) activities using the IonFlux HT electrophysiological platform.
The parameters measured are described in the Data Analysis section.
(§3) All wells included a final DMSO concentration of 0.33% including all control wells.
(§4) All recordings were obtained from a holding potential of −60 mV. The compound addition sequence that was used for all additions was the same for all assays. […] The process was repeated with the next ascending concentration of test compound (FIG. 1).
(§5) All data were first exported to an Excel compatible data file and then analyzed using Graph Pad Prism software.

hGABAA α2β3γ2 = hGABAA α2β3γ2 (Homo sapiens, UniProt P18507+P28472+P47869); assay: hGABAA IonFlux HT PAM Assay, α2β3γ2; format: cell-based; settings: for Mean Maximal Effect (% of Control): normalized to baseline peak current induced by EC20 GABA (0.8 μM) for 2 seconds
Chain of hGABAA α2β3γ2 (P47869 29-451): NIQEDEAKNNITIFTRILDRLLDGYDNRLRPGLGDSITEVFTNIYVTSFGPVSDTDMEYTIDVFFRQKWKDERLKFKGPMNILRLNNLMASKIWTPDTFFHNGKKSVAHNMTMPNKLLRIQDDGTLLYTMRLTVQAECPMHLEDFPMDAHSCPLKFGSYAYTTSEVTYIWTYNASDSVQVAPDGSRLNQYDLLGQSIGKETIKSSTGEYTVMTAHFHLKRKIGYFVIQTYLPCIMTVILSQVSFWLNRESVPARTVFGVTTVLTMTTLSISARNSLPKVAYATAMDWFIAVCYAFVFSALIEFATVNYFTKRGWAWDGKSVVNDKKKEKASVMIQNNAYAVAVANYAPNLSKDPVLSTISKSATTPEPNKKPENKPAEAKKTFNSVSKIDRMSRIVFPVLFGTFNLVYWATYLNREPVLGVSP
Chain of hGABAA α2β3γ2 (P28472 26-473): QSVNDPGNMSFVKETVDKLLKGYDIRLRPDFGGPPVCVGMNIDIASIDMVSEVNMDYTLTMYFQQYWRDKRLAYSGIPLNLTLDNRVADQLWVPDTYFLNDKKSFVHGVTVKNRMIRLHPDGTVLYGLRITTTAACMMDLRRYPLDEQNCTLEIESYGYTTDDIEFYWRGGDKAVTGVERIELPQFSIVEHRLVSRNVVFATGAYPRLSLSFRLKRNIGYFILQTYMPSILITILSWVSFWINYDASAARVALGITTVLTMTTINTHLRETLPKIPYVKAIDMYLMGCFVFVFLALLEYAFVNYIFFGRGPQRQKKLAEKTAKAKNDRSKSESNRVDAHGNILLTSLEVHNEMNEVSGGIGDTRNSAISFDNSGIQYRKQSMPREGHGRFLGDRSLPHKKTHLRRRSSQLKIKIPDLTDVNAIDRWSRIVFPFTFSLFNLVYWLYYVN
Chain of hGABAA α2β3γ2 (P18507 40-475): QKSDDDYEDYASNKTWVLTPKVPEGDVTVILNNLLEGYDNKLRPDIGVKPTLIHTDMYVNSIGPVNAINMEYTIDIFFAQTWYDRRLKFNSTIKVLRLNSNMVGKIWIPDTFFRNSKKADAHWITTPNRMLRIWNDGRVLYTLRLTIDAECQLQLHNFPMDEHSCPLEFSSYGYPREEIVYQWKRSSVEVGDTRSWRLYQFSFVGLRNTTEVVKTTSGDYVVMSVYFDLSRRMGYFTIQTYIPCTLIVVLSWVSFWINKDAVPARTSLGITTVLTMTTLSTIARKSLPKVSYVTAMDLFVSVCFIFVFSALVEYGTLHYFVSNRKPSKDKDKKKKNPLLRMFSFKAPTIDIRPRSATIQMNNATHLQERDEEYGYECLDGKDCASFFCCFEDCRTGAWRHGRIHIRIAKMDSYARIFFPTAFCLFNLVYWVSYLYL
From the text: as §1, §2
The parameters measured are described in the Data Analysis section. […] Open circles represent data that has been excluded from the curve fitting. Where no curve fit was possible, n/c (not calculable) is listed.
as §3, §4, §5

[1] = Estimated EC50, positive modulation of EC20 GABA current

Chain of hGABAA α1β3γ2 (P14867 28-456): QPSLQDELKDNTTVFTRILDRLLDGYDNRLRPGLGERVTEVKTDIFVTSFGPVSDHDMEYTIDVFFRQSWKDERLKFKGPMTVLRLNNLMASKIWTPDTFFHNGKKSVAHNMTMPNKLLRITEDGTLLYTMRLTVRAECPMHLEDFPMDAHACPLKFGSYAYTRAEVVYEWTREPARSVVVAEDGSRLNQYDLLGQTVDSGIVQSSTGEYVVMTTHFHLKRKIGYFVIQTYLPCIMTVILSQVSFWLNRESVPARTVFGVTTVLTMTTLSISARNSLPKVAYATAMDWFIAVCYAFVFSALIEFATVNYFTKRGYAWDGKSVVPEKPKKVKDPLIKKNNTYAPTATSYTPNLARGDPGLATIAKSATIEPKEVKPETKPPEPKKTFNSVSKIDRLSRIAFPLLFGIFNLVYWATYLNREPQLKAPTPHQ
Chain of hGABAA α1β3γ2 (P28472 26-473): as the sequence (P28472 26-473) above
Chain of hGABAA α1β3γ2 (P18507 40-475): as the sequence (P18507 40-475) above

| Structure (SMILES) | (%) Control mean (hGABAA α1β3γ2; 0.001 μM + EC20 GABA) [% Control] | (%) Control n1 (hGABAA α1β3γ2; 0.001 μM + EC20 GABA) [% Control] | (%) Control n2 (hGABAA α1β3γ2; 0.001 μM + EC20 GABA) [% Control] | (%) Control mean (hGABAA α1β3γ2; 0.01 μM + EC20 GABA) [% Control] | (%) Control n1 (hGABAA α1β3γ2; 0.01 μM + EC20 GABA) [% Control] | (%) Control n2 (hGABAA α1β3γ2; 0.01 μM + EC20 GABA) [% Control] | (%) Control mean (hGABAA α1β3γ2; 0.1 μM + EC20 GABA) [% Control] | (%) Control n1 (hGABAA α1β3γ2; 0.1 μM + EC20 GABA) [% Control] | (%) Control n2 (hGABAA α1β3γ2; 0.1 μM + EC20 GABA) [% Control] | (%) Control mean (hGABAA α1β3γ2; 1 μM + EC20 GABA) [% Control] | (%) Control n1 (hGABAA α1β3γ2; 1 μM + EC20 GABA) [% Control] | (%) Control n2 (hGABAA α1β3γ2; 1 μM + EC20 GABA) [% Control] | (%) Control mean (hGABAA α1β3γ2; 10 μM + EC20 GABA) [% Control] | (%) Control n1 (hGABAA α1β3γ2; 10 μM + EC20 GABA) [% Control] | (%) Control n2 (hGABAA α1β3γ2; 10 μM + EC20 GABA) [% Control] | (%) Control mean (hGABAA α1β3γ2; 100 μM + EC20 GABA) [% Control] | (%) Control n1 (hGABAA α1β3γ2; 100 μM + EC20 GABA) [% Control] | (%) Control n2 (hGABAA α1β3γ2; 100 μM + EC20 GABA) [% Control] | Mean Maximal Effect (% of Control) (hGABAA α1β3γ2) | Mean Maximal Effect (% of Control) (hGABAA α2β3γ2) | further results |
| --- | --- | --- | --- | --- | --- | --- | --- | --- | --- | --- | --- | --- | --- | --- | --- | --- | --- | --- | --- | --- | --- |
| CN1CCN(C(=O)O[C@H]2c3nccnc3C(=O)N2c2ccc(Cl)cn2)CC1 [Eszopiclone] | 105.7 | 97.8 | 113.5 | 140.3 | 132.0 | 148.7 | 252.4 | 242.3 | 262.5 | 247.6 | 267.4 | 227.7 | 252.4 | 262.3 | 242.5 | 234.7 | 258.5 | 210.8 | 252 % of Control | 213 % of Control | EC50 (hGABAA α1β3γ2; [1]): 0.012 µM; EC50 (hGABAA α2β3γ2; [1]): 0.164 µM |
| Cc1ccc(-c2nc3ccc(C)cn3c2CC(=O)N(C)C)cc1 [Zolpidem] | 110.7 | 116.2 | 105.2 | 141.9 | 144.3 | 139.4 | 267.3 | 278.5 | 256.1 | 292.4 | 294.8 | 290.1 | 318.1 | 326.1 | 310.1 | 330.6 | 349.7 | 311.6 | 331 % of Control | 304 % of Control |  |
